Measurements: ChEMBL document CHEMBL1201862, “PubChem BioAssay data set” (2004)
Active and inactive are the calls of the source.

Columns and labels:
[1] = target: T1, Fatty acid synthase (Homo sapiens, UniProt P49327); assay: FAS thioesterase domain inhibitors, dose response, biochemical, endpoint fluorescence intensity, uHTS hits (AID 624327); type: functional;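 also: fluorescence from hydrolysis of an O-methyl fluorescein acyl ester substrate by the enzyme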
[2] = target: T1, Fatty acid synthase; assay: FAS thioesterase domain inhibitors, dose response, biochemical, kinetic fluorescence intensity (AID 624326); type: functional;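 also: rate of fluorescence rise from hydrolysis of a fluorogenic O-methyl fluorescein ester substrate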
[3] = test system: INS1; assay: beta cell apoptosis inhibitors, cytokine rescue, dose response, luminescence, retest (AID 449756); type: functional, cell-based; settings: Rattus norvegicus;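 also: cell death triggered by IL-1 beta plus TNF-alpha plus IFN-gamma mixture; protective hits raise ATP signal compared with cytokine alone wells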
[4] = target: T2, Replicative DNA helicase DnaB (Mycobacterium tuberculosis, UniProt P9WMR3); assay: DnaB intein splicing inhibitors, dose response, biochemical, cell-free fluorescence (AID 449749); type: functional
T2 sequence (P9WMR3 whole entry): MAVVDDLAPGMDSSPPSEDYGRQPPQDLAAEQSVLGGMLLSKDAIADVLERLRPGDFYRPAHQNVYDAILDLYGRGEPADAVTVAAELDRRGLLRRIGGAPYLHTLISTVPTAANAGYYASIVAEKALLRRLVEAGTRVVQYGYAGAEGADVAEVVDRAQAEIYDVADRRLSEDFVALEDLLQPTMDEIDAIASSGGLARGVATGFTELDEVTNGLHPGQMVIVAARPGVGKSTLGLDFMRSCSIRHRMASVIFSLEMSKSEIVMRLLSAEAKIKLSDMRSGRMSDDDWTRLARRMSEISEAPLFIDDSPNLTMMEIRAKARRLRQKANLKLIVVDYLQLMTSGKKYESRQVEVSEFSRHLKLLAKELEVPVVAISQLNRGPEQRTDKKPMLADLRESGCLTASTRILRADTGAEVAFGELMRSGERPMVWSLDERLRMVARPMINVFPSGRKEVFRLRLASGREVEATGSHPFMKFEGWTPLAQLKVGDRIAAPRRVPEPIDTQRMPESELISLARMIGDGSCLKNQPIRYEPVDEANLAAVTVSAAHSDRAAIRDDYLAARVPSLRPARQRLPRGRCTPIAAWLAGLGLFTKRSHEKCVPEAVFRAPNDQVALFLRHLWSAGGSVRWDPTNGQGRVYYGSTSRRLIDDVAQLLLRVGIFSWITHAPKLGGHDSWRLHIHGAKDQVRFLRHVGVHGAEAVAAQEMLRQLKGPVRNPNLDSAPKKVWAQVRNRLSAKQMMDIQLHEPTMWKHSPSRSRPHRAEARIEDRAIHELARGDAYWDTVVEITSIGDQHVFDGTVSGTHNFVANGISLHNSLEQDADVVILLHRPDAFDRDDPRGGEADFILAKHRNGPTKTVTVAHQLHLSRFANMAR

[5] = target: T3, Protein RecA (Mycobacterium tuberculosis, UniProt P9WHJ3); assay: Fluorescence Cell-Free Homogeneous Dose Retest to Identify Inhibitors of RecA-Intein Splicing Activity. [Related pubchem assays (depositor defined):AID2097, AID2223, AID489010, AID492950]; type: functional
T3 sequence (P9WHJ3 whole entry): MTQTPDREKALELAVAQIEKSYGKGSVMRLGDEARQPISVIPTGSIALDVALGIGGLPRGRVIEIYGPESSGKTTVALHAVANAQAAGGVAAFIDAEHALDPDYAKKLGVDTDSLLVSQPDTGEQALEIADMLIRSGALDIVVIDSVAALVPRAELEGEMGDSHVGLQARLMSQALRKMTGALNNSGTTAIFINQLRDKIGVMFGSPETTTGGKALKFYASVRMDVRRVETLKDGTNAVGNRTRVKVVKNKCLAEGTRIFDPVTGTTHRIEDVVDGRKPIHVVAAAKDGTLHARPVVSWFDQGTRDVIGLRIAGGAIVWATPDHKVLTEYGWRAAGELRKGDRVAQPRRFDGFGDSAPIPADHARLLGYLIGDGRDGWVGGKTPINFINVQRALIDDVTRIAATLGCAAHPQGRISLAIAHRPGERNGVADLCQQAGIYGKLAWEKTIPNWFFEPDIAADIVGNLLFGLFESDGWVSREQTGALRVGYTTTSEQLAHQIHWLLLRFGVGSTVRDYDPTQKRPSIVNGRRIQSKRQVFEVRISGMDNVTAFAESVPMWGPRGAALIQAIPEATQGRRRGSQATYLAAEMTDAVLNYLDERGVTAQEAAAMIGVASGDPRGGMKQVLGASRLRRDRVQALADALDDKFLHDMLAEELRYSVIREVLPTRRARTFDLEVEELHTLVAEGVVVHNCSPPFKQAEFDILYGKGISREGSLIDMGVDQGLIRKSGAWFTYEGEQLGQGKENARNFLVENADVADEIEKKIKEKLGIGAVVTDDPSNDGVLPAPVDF

[6] = target: Cytochrome P450 2D6 (Homo sapiens, UniProt P10635);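 also: CYP2D6 member of a cytochrome P450 panel assay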
Sequence of Cytochrome P450 2D6 (P10635 whole entry): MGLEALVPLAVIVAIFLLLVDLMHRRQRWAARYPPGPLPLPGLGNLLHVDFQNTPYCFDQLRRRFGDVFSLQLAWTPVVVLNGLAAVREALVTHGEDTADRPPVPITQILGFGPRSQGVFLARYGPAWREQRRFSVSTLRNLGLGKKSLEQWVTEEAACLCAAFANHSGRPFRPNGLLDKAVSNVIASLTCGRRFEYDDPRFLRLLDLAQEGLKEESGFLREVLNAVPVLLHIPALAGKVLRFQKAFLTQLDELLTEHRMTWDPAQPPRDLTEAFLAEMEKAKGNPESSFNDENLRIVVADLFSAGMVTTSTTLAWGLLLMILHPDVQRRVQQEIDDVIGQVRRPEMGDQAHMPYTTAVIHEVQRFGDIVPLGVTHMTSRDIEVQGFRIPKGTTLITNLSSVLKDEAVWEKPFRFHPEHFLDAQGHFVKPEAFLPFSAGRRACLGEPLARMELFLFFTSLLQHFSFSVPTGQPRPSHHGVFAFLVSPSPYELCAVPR

[7] = test system: Streptococcus sp. 'group A'; assay: growth inhibition of control SK(-) GAS strain, dose response, counter-screen for streptokinase expression inhibitor project, luminescence, kanamycin, BacTiterGlo, confirmation (AID 1900); type: functional, organism-based
[8] = target: T4, Streptokinase A (Streptococcus pyogenes serotype M1, UniProt P10520); assay: S. pyogenes streptokinase expression inhibitors, potency, dose response, plasminogen activation absorbance, OD405 (AID 1914); type: functional, Streptococcus pyogenes M1 GAS;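 also: secreted streptokinase activity via plasminogen activation per viability signal from cell pellet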
T4 sequence (P10520 whole entry): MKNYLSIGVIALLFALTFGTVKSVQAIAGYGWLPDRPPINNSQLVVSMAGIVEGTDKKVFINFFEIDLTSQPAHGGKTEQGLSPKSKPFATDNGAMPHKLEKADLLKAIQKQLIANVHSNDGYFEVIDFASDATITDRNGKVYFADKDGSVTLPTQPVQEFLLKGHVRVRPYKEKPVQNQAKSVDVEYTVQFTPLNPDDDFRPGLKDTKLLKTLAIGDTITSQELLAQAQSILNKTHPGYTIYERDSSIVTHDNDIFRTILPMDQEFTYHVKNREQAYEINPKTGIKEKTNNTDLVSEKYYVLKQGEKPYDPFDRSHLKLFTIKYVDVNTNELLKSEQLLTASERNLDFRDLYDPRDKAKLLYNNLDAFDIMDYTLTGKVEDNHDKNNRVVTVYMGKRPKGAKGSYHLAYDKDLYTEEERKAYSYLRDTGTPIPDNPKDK

[9] = test system: Streptococcus; assay: Group A Streptococcus viability loss, dose response, counter-screen for streptokinase expression inhibitor project, luminescence, BacTiterGlo (AID 1915); type: functional, organism-based;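 also: potency for reduction of bacterial viability or growth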
[10] = target: FAD-linked sulfhydryl oxidase ALR (Homo sapiens, UniProt P55789); assay: inhibitors of human ALR sulfhydryl oxidase, dose response, biochemical, H2O2 detection, luminescence, cherry-pick (AID 493248)
Sequence of FAD-linked sulfhydryl oxidase ALR (P55789 whole entry): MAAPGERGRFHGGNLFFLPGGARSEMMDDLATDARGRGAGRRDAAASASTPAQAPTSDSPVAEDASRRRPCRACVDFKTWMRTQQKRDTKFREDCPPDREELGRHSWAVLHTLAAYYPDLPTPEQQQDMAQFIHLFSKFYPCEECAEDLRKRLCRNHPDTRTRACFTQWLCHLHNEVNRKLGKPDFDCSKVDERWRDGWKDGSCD

[11] = target: T5, Cytochrome P450 1A2 (Homo sapiens, UniProt P05177);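 also: PubChem cytochrome P450 panel assay, CYP1A2 panel member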
T5 sequence (P05177 whole entry): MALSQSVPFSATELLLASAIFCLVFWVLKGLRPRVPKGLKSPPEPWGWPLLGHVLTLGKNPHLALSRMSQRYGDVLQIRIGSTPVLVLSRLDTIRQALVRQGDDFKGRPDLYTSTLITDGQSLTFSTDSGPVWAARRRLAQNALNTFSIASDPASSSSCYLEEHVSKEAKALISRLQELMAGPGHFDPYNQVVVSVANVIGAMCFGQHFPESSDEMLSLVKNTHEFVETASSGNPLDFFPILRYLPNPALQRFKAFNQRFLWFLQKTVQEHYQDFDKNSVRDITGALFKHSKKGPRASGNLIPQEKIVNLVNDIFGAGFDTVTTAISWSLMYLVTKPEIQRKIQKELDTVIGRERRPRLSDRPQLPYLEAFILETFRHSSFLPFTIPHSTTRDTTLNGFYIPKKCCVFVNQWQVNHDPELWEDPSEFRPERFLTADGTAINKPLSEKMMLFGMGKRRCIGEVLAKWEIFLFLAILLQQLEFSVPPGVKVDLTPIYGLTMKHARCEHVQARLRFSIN

[12] = target: Cytochrome P450 3A4 (Homo sapiens, UniProt P08684);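 also: CYP3A4 tested as one member of a cytochrome P450 panel screen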
Sequence of Cytochrome P450 3A4 (P08684 whole entry): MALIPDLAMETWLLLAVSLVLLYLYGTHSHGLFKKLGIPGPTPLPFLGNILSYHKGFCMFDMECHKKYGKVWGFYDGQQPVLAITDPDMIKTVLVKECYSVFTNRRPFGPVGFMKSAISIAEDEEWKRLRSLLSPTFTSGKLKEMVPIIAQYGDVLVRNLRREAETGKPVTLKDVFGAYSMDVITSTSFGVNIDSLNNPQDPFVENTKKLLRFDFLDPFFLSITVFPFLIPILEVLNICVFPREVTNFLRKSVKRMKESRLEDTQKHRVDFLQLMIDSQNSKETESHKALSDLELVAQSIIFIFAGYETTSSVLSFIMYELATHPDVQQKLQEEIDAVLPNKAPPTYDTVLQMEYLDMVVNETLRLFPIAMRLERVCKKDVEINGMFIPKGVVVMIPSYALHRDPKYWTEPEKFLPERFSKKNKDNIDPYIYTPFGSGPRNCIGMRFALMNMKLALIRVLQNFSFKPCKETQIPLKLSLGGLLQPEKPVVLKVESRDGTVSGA

[13] = Luminescence Cell-Based Dose Retest to Confirm Inhibitors of Cancer Stem Cells. [Related pubchem assays (depositor defined):AID2717, AID2721]; type: functional; settings: Homo sapiens
[14] = target: T6, RNA-binding protein pos-1 (Caenorhabditis elegans, UniProt G5EF15); assay: inhibitors of POS-1/mex-3 RNA binding, dose response, biochemical, fluorescence polarization (AID 1964);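 also: purified POS-1 fused to maltose binding protein made in E. coli; potency of compounds blocking POS-1 binding to fluorescent RNA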
T6 sequence (G5EF15 whole entry): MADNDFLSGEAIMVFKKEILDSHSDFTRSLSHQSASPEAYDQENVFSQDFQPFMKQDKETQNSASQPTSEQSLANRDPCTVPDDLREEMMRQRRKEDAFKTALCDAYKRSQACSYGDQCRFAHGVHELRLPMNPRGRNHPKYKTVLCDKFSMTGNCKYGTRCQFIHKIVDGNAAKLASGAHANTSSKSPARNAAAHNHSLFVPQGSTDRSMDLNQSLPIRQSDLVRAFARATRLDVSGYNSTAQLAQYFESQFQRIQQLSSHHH

[15] = target: Cytochrome P450 2C19 (Homo sapiens, UniProt P33261); assay: Cytochrome panel assay with activity outcomes. Panel member name: p450-cyp2c19 Compounds with AC50 equal or less than 10 uM are considered active; type: functional; settings: read-out: AC50
Sequence of Cytochrome P450 2C19 (P33261 whole entry): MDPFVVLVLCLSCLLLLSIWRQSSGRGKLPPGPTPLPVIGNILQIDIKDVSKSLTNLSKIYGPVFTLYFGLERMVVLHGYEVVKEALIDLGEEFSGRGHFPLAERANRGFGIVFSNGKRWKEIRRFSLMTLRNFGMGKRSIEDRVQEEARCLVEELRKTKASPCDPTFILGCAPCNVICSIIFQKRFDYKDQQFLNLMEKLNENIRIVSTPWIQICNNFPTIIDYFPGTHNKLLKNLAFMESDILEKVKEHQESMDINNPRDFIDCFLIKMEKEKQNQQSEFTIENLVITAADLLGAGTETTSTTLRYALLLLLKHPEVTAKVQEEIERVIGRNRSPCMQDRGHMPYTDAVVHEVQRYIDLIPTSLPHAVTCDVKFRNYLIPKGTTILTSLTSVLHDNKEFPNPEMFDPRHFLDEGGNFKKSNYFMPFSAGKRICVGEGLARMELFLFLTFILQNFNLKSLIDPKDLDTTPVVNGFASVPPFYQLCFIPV

[16] = target: Cytochrome P450 2C9 (Homo sapiens, UniProt P11712)
Sequence of Cytochrome P450 2C9 (P11712 whole entry): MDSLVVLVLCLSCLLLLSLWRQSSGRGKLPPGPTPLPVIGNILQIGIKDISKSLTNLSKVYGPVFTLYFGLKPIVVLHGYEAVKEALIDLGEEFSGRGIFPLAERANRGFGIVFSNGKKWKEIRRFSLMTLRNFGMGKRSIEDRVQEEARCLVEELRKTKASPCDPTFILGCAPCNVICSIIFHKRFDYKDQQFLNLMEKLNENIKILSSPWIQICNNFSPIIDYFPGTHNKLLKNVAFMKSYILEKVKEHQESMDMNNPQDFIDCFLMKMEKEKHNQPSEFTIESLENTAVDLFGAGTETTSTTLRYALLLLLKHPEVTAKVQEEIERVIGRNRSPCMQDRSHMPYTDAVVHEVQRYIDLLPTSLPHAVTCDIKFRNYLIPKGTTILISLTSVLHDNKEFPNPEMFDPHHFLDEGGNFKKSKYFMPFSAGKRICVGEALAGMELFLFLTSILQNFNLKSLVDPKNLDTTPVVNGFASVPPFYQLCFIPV

T1 sequence (P49327 whole entry, the tested form may be a part): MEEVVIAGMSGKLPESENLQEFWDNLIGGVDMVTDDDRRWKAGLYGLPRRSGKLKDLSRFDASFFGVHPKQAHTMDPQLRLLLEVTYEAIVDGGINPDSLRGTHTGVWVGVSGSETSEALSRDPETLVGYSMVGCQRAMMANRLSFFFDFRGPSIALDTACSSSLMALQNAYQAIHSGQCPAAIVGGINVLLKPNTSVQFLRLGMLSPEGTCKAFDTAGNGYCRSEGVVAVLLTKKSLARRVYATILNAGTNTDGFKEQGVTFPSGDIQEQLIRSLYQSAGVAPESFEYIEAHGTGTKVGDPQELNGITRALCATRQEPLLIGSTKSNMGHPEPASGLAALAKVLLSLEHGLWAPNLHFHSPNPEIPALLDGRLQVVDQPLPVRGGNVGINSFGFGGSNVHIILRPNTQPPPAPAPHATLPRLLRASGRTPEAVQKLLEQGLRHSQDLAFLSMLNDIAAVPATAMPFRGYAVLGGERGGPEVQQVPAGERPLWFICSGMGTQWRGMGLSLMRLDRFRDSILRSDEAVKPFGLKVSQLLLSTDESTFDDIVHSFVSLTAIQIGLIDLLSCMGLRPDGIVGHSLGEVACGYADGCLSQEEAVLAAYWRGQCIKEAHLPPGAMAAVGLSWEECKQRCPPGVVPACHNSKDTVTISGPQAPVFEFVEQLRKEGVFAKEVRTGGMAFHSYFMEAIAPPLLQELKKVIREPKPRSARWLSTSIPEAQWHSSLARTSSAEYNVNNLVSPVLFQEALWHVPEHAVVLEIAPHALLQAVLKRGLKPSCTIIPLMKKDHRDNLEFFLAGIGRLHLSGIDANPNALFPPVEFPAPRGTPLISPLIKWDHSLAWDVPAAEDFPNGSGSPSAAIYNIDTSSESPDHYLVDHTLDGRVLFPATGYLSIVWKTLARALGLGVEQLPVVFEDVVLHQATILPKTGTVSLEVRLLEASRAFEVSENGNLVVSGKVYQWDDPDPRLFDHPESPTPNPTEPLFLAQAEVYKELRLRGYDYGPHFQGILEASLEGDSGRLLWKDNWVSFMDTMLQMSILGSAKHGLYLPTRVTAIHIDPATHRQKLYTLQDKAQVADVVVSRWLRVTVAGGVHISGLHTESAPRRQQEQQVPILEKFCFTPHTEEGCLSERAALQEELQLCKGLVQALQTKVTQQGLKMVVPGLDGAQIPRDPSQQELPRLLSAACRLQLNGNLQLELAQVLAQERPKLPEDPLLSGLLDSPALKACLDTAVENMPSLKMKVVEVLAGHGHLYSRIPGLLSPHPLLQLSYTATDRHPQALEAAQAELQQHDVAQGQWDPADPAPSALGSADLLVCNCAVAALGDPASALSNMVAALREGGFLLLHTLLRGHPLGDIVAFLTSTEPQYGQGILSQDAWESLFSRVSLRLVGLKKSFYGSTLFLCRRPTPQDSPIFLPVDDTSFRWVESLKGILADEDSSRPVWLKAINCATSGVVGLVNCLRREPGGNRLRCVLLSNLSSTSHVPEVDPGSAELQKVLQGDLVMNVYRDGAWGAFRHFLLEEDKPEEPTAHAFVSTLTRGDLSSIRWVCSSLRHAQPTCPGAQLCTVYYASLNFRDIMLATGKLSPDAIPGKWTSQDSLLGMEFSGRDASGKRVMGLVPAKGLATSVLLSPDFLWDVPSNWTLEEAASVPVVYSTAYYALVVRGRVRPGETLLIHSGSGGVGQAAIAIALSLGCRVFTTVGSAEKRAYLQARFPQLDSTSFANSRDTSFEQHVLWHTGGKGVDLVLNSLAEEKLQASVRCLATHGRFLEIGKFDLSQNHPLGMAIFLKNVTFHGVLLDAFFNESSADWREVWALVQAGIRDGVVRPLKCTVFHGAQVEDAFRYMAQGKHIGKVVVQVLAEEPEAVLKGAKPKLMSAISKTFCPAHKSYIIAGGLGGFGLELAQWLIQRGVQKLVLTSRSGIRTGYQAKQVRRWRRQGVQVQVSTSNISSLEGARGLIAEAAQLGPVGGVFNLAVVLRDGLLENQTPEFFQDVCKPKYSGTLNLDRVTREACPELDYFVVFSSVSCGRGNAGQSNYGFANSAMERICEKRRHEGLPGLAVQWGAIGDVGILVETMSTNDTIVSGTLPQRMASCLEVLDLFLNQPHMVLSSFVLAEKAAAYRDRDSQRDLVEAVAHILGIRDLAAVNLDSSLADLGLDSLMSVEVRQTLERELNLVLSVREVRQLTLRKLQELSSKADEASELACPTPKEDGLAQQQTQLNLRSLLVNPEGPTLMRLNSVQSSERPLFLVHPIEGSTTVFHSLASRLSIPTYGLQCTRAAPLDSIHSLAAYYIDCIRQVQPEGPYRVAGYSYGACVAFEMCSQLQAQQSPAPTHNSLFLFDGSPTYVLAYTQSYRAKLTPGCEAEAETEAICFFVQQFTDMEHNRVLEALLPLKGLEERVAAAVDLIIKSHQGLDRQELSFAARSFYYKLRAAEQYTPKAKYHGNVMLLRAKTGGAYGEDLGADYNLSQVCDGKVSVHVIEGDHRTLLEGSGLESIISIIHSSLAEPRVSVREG

With `O=C(COC(=O)c1cccc([N+](=O)[O-])c1)NC1CCCC1` the IC50 [1] was 9.58 µM (active) and the IC50 [2] was 8.78 µM (active).

For `Oc1ccc(Br)cc1-c1cc(-c2ccc(Cl)cc2)[nH]n1`, the AC50 [3] was 4.87 µM (active).

For `O=c1[nH]cc(O)c(=O)[nH]1`, the AC50 [4] was 7.97 µM (active) and the EC50 [5] was 9.27 µM (active).

For `O=C(CCN1C(=O)/C(=C/c2cccs2)SC1=S)Nc1ccc(C(=O)O)c(O)c1`, the AC50 [4] was 5.23 µM (active) and the EC50 [5] was 13.3 µM (active).

In the case of `CCCCCOP(=O)(OCCCCC)C1(NS(=O)(=O)c2ccccc2)C=CC(=O)c2ccccc21` (centres undefined), the AC50 [4] was 2.96 µM (active) and the EC50 [5] was 2.69 µM (active).

In the case of `Cc1nc2ccccc2n1CC(=O)N/N=C\C=C\c1ccccc1`, the AC50 [6] was 35.5 µM (inconclusive).

In the case of `Cc1ccc(C2C(C#N)=C(N)Oc3[nH]nc(-c4cccs4)c32)s1` (centres undefined), the AC50 [4] was 1.54 µM (active) and the EC50 [5] was 1.82 µM (active).

With `COc1ccc(C2CC(c3cccs3)=NN2C(=O)CSC2=NCCS2)cc1` (centres undefined) the EC50 [7] was 21.5 µM (active), the EC50 [8] was > 150 µM (not active) and the EC50 [9] was > 150 µM (not active). For the same compound, the AC50 [4] was 10.9 µM (active) and the EC50 [5] was 5.31 µM (active).

In the case of `CN(C)S(=O)(=O)c1ccc(C(=O)N2CCN=C2SCc2cccnc2)cc1`, the AC50 [10] was 0.017 µM (active).

In the case of `CC(CO)Nc1nc(SCc2ccccc2)nc2sc3c(c12)CCC3` (centres undefined), the AC50 [6] was 12.6 µM (inconclusive).

For `O=C(CN1CCN(S(=O)(=O)c2ccc(Cl)cc2)CC1)Nc1ccc2c(c1)OCO2`, the AC50 [4] was 55.9 µM (active), the EC50 [5] was > 380 µM (inactive) and the AC50 [11] was 15.8 µM (inconclusive).

With `N#Cc1cccc(NC(=O)N2CCC3(CC2)CCN(C(=O)c2csnn2)CC3)c1` the AC50 [6] was 15.8 µM (inconclusive) and the AC50 [12] was 20 µM (inconclusive).

With `c1cc2cc(c1)C[n+]1ccc(c3ccccc31)NCc1ccc(cc1)CNc1cc[n+](c3ccccc13)C2` the AC50 [6] was 39.8 µM (inconclusive).

For `Cn1sc(NC(=O)c2ccc(Cl)cc2)nc1=O`, the AC50 [10] was 1.88 µM (active).

For `CCNc1ccc(S(=O)(=O)N(C)C)cc1NCC(=O)Nc1ccccc1Cl`, the AC50 [10] was 5.58 µM (active).

For `CCOC(=O)Cc1c(O)oc2nnc(C)c-2c1C`, the AC50 [4] was > 380 µM (inactive) and the EC50 [5] was 19.1 µM (active).

With `CCNc1ncc2nc(-c3cccs3)c(=O)n(C[C@H]3CCCO3)c2n1` the AC50 [6] was 0.2 µM (inconclusive) and the AC50 [12] was 7.94 µM (inconclusive).

With `COc1ccc(C(=O)NCC(=O)OCc2cccc(Br)c2)cc1` the AC50 [6] was 15.8 µM (inconclusive).

For `COc1ccc2[nH]c(N3CCCC3)nc2c1`, the AC50 [10] was 6.11 µM (active).

With `CN(C)S(=O)(=O)c1cccc(-c2cn3cccnc3n2)c1` the AC50 [10] was 0.278 µM (active).

With `Cc1ccccc1CNc1ccc(C(CC(N)=O)NC(=O)c2ccc(Br)cc2)cc1[N+](=O)[O-]` (centres undefined) the AC50 [13] was 0.986 µM (active) and the AC50 [3] was 14.9 µM (active).

In the case of `COc1ccc(Cn2c(S)nnc2-c2ccc(OC)cc2)cc1`, the AC50 [10] was 0.009 µM (active).

For `O=C1NC(=O)N(c2cccc(F)c2)C(=O)/C1=C/c1c[nH]c2ccccc12`, the EC50 [14] was > 300 µM (not active).

With `COc1ccccc1CNc1ncnc2ccc(-c3c(C)noc3C)cc12` the AC50 [15] was 31.6 µM (inconclusive), the AC50 [6] was 39.8 µM (inconclusive) and the AC50 [16] was 0.794 µM (inconclusive).

In the case of `Cc1cc(C)n(-c2ccc([N+](=O)[O-])cc2)n1`, the AC50 [4] was > 380 µM (inactive) and the EC50 [5] was > 380 µM (inactive).

With `Cc1nc(C#N)c(N/N=C/c2cccc(Cl)c2)o1` the AC50 [10] was 1.66 µM (active).

In the case of `COc1ccc(C(C(=O)Nc2ccc(F)cc2)N(C(=O)Cn2nnc3ccccc32)C2CC2)cc1` (centres undefined), the AC50 [15] was 10 µM (inconclusive) and the AC50 [6] was 28.2 µM (inconclusive).

With `COc1ccc(NC2CCCN(C(=O)CCc3ccncc3)C2)cc1OC` (centres undefined) the AC50 [10] was 4.75 µM (active).

For `CC(C)c1cccc2nc3c(c([Si](C)(C)C)c12)Cn1c-3cccc1=O`, the AC50 [6] was 39.8 µM (inconclusive) and the AC50 [16] was 39.8 µM (inconclusive).

For `O=C(OCc1nnc(-c2ccccc2)o1)c1ccc2c(c1)OCCO2`, the AC50 [6] was 28.2 µM (inconclusive).

For `Cc1n[nH]c2c1C(c1c[nH]nc1-c1ccc(F)cc1)C(C#N)=C(N)O2` (centres undefined), the AC50 [4] was 12.1 µM (active) and the EC50 [5] was 3.88 µM (active).

For `COC(=O)c1cc(NS(=O)(=O)c2ccc(N3CCCCCC3)c([N+](=O)[O-])c2)cc(C(=O)OC)c1`, the AC50 [6] was 12.6 µM (inconclusive) and the AC50 [11] was 14.1 µM (inconclusive).
